Reference: patent US8940896B2, “Tetra-cyclic carboline derivatives useful in the inhibition of angiogenesis” (PTC Therapeutics, Inc., priority 2004, dated 2015)
pEC50: −log10 of the molar value.

Tested on: VEGF
Assay: Hypoxia-inducible endogenous VEGF expression, VEGF ELISA assay
Assay type: cell-based
Settings: HeLa cells, hypoxic conditions (1% O2, 5% CO2), VEGF in conditioned media
Procedure: The ability of the compounds of the invention to modulate hypoxia-inducible endogenous VEGF expression may be analyzed as follows. VEGF protein levels may be monitored by an ELISA assay (R&D Systems). Briefly, HeLa cells may be cultured for 24-48 hours under hypoxic conditions (1% O2, 5% CO2, balanced with nitrogen) in the presence or absence of a compound of the invention. The conditioned media may then be assayed by ELISA, and the concentration of VEGF calculated from the standard ELISA curve of each assay.
A dose-response analysis may be performed using the ELISA assay and conditions described above. The conditions for the dose-response ELISA are analogous to those described above. A series of, e.g., seven different concentrations may be analyzed. In parallel, a dose-response cytotoxicity assay may be performed using CellTiter Glo (Promega) under the same conditions as the ELISA to ensure that the inhibition of VEGF expression was not due to the cytotoxicity. Dose-response curves may be plotted using percentage inhibition versus concentration of the compound, and EC50 and CC50 values may be generated for each compound with the maximal inhibition set as 100% and the minimal inhibition as 0%.

## C=CCN1C(=O)C2Cc3c([nH]c4ccccc34)C(c3ccc(O)cc3)N2C1=S (stereo not shown) [Compound 77]
Homo sapiens, HeLa
  pEC50: < 6.00

## COc1ccc(C2c3[nH]c4ccccc4c3CC3C(=O)N(CCc4ccccc4)C(=S)N32)cc1 (stereo not shown) [Compound 79]
Homo sapiens, HeLa
  pEC50: < 6.00

## O=C1C2Cc3c([nH]c4ccc(Br)cc34)C(c3ccc(OCCCn4ccnc4)cc3)N2C(=S)N1c1ccc(Cl)cc1 (stereo not shown) [Compound 199]
Homo sapiens, HeLa
  pEC50: > 8.10

## CC(C)N1C(=O)C2Cc3c([nH]c4ccc(Cl)cc34)C(c3ccc(N4CCN(C)CC4)cc3)N2C1=S (stereo not shown) [Compound 133]
Homo sapiens, HeLa
  pEC50: 6.70 to 7.40

## O=C1C2Cc3c([nH]c4ccccc34)C(C3CCCCC3)N2C(=S)N1C1CC1 (stereo not shown) [Compound 5]
  pEC50: < 6.00

## O=C1C2Cc3c([nH]c4ccc(Br)cc34)C(c3ccc(OCCCCl)cc3)N2C(=S)N1c1ccc(Cl)cc1 (stereo not shown) [Compound 188]
Homo sapiens, HeLa
  pEC50: > 8.10

## COc1ccc(C2c3[nH]c4ccc(Br)cc4c3CC3C(=O)N(c4cccc(OC(C)=O)c4)C(=S)N32)cc1 (stereo not shown) [Compound 182]
Homo sapiens, HeLa
  pEC50: > 8.10

## COc1ccccc1C1c2[nH]c3ccccc3c2CC2C(=O)N(c3cccc(C)c3)C(=S)N21 (stereo not shown) [Compound 90]
Homo sapiens, HeLa
  pEC50: < 6.00

## O=C1C2Cc3c([nH]c4ccccc34)C(c3ccccc3)N2C(=S)N1C1CCCCC1 (stereo not shown) [Compound 56]
Homo sapiens, HeLa
  pEC50: < 6.00

## O=C1C2Cc3c([nH]c4ccc(Br)cc34)C(c3ccc(OCCN4CCOCC4)cc3)N2C(=S)N1CC1CCCO1 (stereo not shown) [Compound 106]
Homo sapiens, HeLa
  pEC50: 6.70 to 7.40

## O=C1C2Cc3c([nH]c4ccc(Br)cc34)C(c3ccc4c(c3)OCO4)N2C(=S)N1C1CCCC1 (stereo not shown) [Compound 22]
Homo sapiens, HeLa
  pEC50: > 8.10

## CC(C)N1C(=O)C2Cc3c([nH]c4ccc(Br)cc34)C(c3ccc(OCCCn4ccnc4)cc3)N2C1=S (stereo not shown) [Compound 160]
Homo sapiens, HeLa
  pEC50: 7.40 to 8.10

## CCOC(=O)C(C)N1C(=O)C2Cc3c([nH]c4ccc(Br)cc34)C(c3ccc(OC)cc3)N2C1=S (stereo not shown) [Compound 144]
Homo sapiens, HeLa
  pEC50: 7.40 to 8.10

## COc1ccc(C2c3[nH]c4ccc(Br)cc4c3CC3C(=O)N(c4cccc(F)c4)C(=S)N32)cc1 (stereo not shown) [Compound 167]
Homo sapiens, HeLa
  pEC50: > 8.10

## COc1ccc(C2c3[nH]c4ccc(Br)cc4c3CC3C(=O)N(c4ccccc4F)C(=S)N32)cc1 (stereo not shown) [Compound 166]
Homo sapiens, HeLa
  pEC50: 7.40 to 8.10

## O=C1C2Cc3c([nH]c4ccccc34)C(c3ccccc3)N2C(=O)N1C1CCCCC1 (stereo not shown) [Compound 72]
Homo sapiens, HeLa
  pEC50: < 6.00

## O=C1C2Cc3c([nH]c4ccc(Cl)cc34)C(c3ccc4c(c3)OCO4)N2C(=S)N1C1CCCCC1 (stereo not shown) [Compound 25]
Homo sapiens, HeLa
  pEC50: > 8.10

## COc1ccc(C2c3[nH]c4ccc(Br)cc4c3CC3C(=O)N(C4CC4)C(=S)N32)cc1 (stereo not shown) [Compound 17]
Homo sapiens, HeLa
  pEC50: > 8.10

## CC(C)N1C(=O)C2Cc3c([nH]c4ccc(Br)cc34)C(c3ccc(N4CCOCC4)cc3)N2C1=O (stereo not shown) [Compound 118]
Homo sapiens, HeLa
  pEC50: 6.70 to 7.40

## CCOC(=O)CN1C(=O)C2Cc3c([nH]c4ccc(Br)cc34)C(c3ccc(OC)cc3)N2C1=S (stereo not shown) [Compound 137]
Homo sapiens, HeLa
  pEC50: 7.40 to 8.10

## COc1ccc(C2c3[nH]c4ccccc4c3CC3C(=O)N(c4ccc(OC)cc4C)C(=S)N32)cc1 (stereo not shown) [Compound 78]
Homo sapiens, HeLa
  pEC50: < 6.00

## CCN1C(=O)C2Cc3c([nH]c4ccccc34)C(c3cc(OC)c(OC)c(OC)c3)N2C1=S (stereo not shown) [Compound 64]
Homo sapiens, HeLa
  pEC50: < 6.00

## CC(C)N1C(=O)C2Cc3c([nH]c4ccc(Cl)cc34)C(c3ccc(N4CCN(C)CC4)cc3)N2C1=O (stereo not shown) [Compound 124]
Homo sapiens, HeLa
  pEC50: 6.70 to 7.40

## CC(C)N1C(=O)C2Cc3c([nH]c4ccc(Br)cc34)C(c3ccc(-c4cncnc4)cc3)N2C1=S (stereo not shown) [Compound 131]
Homo sapiens, HeLa
  pEC50: 7.40 to 8.10

## CN1C(=O)C2Cc3c([nH]c4ccccc34)C(c3cccc(F)c3)N2C1=S (stereo not shown) [Compound 65]
Homo sapiens, HeLa
  pEC50: < 6.00

## COc1ccccc1C1c2[nH]c3ccccc3c2CC2C(=O)N(c3ccccc3C)C(=S)N21 (stereo not shown) [Compound 89]
Homo sapiens, HeLa
  pEC50: < 6.00

## COc1cccc(C2c3[nH]c4ccccc4c3CC3C(=O)N(C4CCCC4)C(=S)N32)c1 (stereo not shown) [Compound 12]
Homo sapiens, HeLa
  pEC50: < 6.00

## COc1ccc(C2c3[nH]c4ccccc4c3CC3C(=O)N(C4CCCCC4)C(=O)N32)cc1 (stereo not shown) [Compound 48]
Homo sapiens, HeLa
  pEC50: < 6.00

## COc1ccccc1C1c2[nH]c3ccccc3c2CC2C(=O)N(CCc3ccccc3)C(=S)N21 (stereo not shown) [Compound 94]
Homo sapiens, HeLa
  pEC50: < 6.00

## Cc1ccc(N2C(=O)C3Cc4c([nH]c5ccccc45)C(c4cccc(Cl)c4)N3C2=S)cc1 (stereo not shown) [Compound 34]
Homo sapiens, HeLa
  pEC50: 6.00 to 6.70

## COc1ccc(C2c3[nH]c4ccc(Br)cc4c3CC3C(=O)N(c4ccc(F)cc4)C(=S)N32)cc1 (stereo not shown) [Compound 168]
Homo sapiens, HeLa
  pEC50: > 8.10

## O=C1C2Cc3c([nH]c4ccc(Br)cc34)C(C3CCCCC3)N2C(=S)N1C1CC1 (stereo not shown) [Compound 15]
Homo sapiens, HeLa
  pEC50: 6.00 to 6.70

## COc1ccc(C2c3[nH]c4ccccc4c3CC3C(=O)N(c4ccc(C(C)C)cc4)C(=O)N32)cc1 (stereo not shown) [Compound 35]
Homo sapiens, HeLa
  pEC50: 6.00 to 6.70

## CN(C)CCCOc1ccc(C2c3[nH]c4ccc(Cl)cc4c3CC3C(=O)N(C4CCCCC4)C(=S)N32)cc1 (stereo not shown) [Compound 114]
Homo sapiens, HeLa
  pEC50: 6.70 to 7.40

## CC(=O)N1CCN(CCCOc2ccc(C3c4[nH]c5ccc(Br)cc5c4CC4C(=O)N(C(C)C)C(=S)N43)cc2)CC1 (stereo not shown) [Compound 152]
Homo sapiens, HeLa
  pEC50: > 8.10

## O=C1C2Cc3c([nH]c4ccccc34)C(C3CCCCC3)N2C(=S)N1C1CCCCC1 (stereo not shown) [Compound 1]
  pEC50: < 6.00

## CCN1C(=O)C2Cc3c([nH]c4ccc(Br)cc34)C(c3ccc(OC)cc3)N2C1=O (stereo not shown) [Compound 55]
Homo sapiens, HeLa
  pEC50: < 6.00

## COc1ccc(C2c3[nH]c4ccc(Br)cc4c3CC3C(=O)N(c4ccc(C)cc4)C(=S)N32)cc1 (stereo not shown) [Compound 171]
Homo sapiens, HeLa
  pEC50: > 8.10

## COc1ccc(C2c3[nH]c4ccc(Br)cc4c3CC3C(=O)N(C(=O)c4ccccc4)C(=S)N32)cc1 (stereo not shown) [Compound 178]
Homo sapiens, HeLa
  pEC50: 6.70 to 7.40

## O=C1C2Cc3c([nH]c4ccccc34)C(c3ccc(F)cc3)N2C(=S)N1C1CCCCC1 (stereo not shown) [Compound 4]
Homo sapiens, HeLa
  pEC50: < 6.00

## O=C1C2Cc3c([nH]c4ccc(Br)cc34)C(c3ccc(OCCCn4ccnn4)cc3)N2C(=S)N1c1ccc(Cl)cc1 (stereo not shown) [Compound 149]
Homo sapiens, HeLa
  pEC50: > 8.10

## COc1ccc(C2c3[nH]c4ccc(Br)cc4c3CC3C(=O)N(CC4CCCO4)C(=S)N32)cc1 (stereo not shown) [Compound 143]
Homo sapiens, HeLa
  pEC50: 7.40 to 8.10

## O=C1C2Cc3c([nH]c4ccccc34)C(c3cccc(Cl)c3)N2C(=S)N1c1cccc(F)c1 (stereo not shown) [Compound 39]
Homo sapiens, HeLa
  pEC50: 6.00 to 6.70

## CN1CCN(CCCOc2ccc(C3c4[nH]c5ccc(Br)cc5c4CC4C(=O)N(c5ccc(Cl)cc5)C(=S)N43)cc2)CC1 (stereo not shown) [Compound 198]
Homo sapiens, HeLa
  pEC50: > 8.10

## COCCN(C)CCCOc1ccc(C2c3[nH]c4ccc(Br)cc4c3CC3C(=O)N(C(C)C)C(=S)N32)cc1 (stereo not shown) [Compound 158]
Homo sapiens, HeLa
  pEC50: > 8.10

## COC(=O)N1C(=O)C2Cc3c([nH]c4ccc(Br)cc34)C(c3ccc(OC)cc3)N2C1=S (stereo not shown) [Compound 147]
Homo sapiens, HeLa
  pEC50: 6.70 to 7.40

## O=C1C2Cc3c([nH]c4ccc(Br)cc34)C(C3CCCCC3)N2C(=S)N1C1CCCC1 (stereo not shown) [Compound 19]
Homo sapiens, HeLa
  pEC50: 7.40 to 8.10

## COCCOc1ccc(C2c3[nH]c4ccc(Cl)cc4c3CC3C(=O)N(C4CCCC4)C(=S)N32)cc1 (stereo not shown) [Compound 109]
Homo sapiens, HeLa
  pEC50: 7.40 to 8.10

## CC(C)N1C(=O)C2Cc3c([nH]c4ccccc34)C(c3cccc(Cl)c3)N2C1=S (stereo not shown) [Compound 68]
Homo sapiens, HeLa
  pEC50: < 6.00

## Cc1ccccc1N1C(=O)C2Cc3c([nH]c4ccccc34)C(c3cccc(Cl)c3)N2C1=S (stereo not shown) [Compound 37]
Homo sapiens, HeLa
  pEC50: < 6.00

## COc1ccc(C2c3[nH]c4ccc(Br)cc4c3CC3C(=O)N(CCc4ccccc4)C(=S)N32)cc1 (stereo not shown) [Compound 181]
Homo sapiens, HeLa
  pEC50: > 8.10

## CC(C)N1C(=O)C2Cc3c([nH]c4ccc(Cl)cc34)C(c3ccc(-c4cncnc4)cc3)N2C1=S (stereo not shown) [Compound 135]
Homo sapiens, HeLa
  pEC50: 6.70 to 7.40

## CC(C)c1ccc(C2c3[nH]c4ccc(Br)cc4c3CC3C(=O)N(C4CCCCC4)C(=S)N32)cc1 (stereo not shown) [Compound 97]
Homo sapiens, HeLa
  pEC50: > 8.10

## COc1ccc(C2c3[nH]c4ccc(Br)cc4c3CC3C(=O)N(c4ccccc4C)C(=S)N32)cc1 (stereo not shown) [Compound 169]
Homo sapiens, HeLa
  pEC50: 6.70 to 7.40

## O=C1C2Cc3c([nH]c4ccc(Br)cc34)C(c3ccc(OCCCN4CCCCC4)cc3)N2C(=S)N1c1ccc(Cl)cc1 (stereo not shown) [Compound 190]
Homo sapiens, HeLa
  pEC50: 7.40 to 8.10

## CC(C)N1C(=O)C2Cc3c([nH]c4ccc(Br)cc34)C(c3ccc(-c4ccncc4)cc3)N2C1=S (stereo not shown) [Compound 130]
Homo sapiens, HeLa
  pEC50: 6.70 to 7.40

## COc1ccc(C2c3[nH]c4ccc(Br)cc4c3CC3C(=O)N(c4ccc(OC)cc4C)C(=S)N32)cc1 (stereo not shown) [Compound 177]
Homo sapiens, HeLa
  pEC50: 6.70 to 7.40

## CCCCCN1C(=O)C2Cc3c([nH]c4ccc(Br)cc34)C(c3ccc(C(C)C)cc3)N2C1=S (stereo not shown) [Compound 98]
Homo sapiens, HeLa
  pEC50: > 8.10

## COCCOc1ccc(C2c3[nH]c4ccc(Br)cc4c3CC3C(=O)N(C4CCCCC4)C(=S)N32)cc1 (stereo not shown) [Compound 117]
  pEC50: > 8.10

## COc1ccc(C2c3[nH]c4ccc(C)cc4c3CC3C(=O)N(C4CCCCC4)C(=S)N32)cc1 (stereo not shown) [Compound 23]
Homo sapiens, HeLa
  pEC50: 7.40 to 8.10

## COc1ccc(C2c3[nH]c4ccc(Br)cc4c3CC3C(=O)N(Cc4ccco4)C(=S)N32)cc1 (stereo not shown) [Compound 180]
Homo sapiens, HeLa
  pEC50: > 8.10
